# US20150105252A1, “SUBSTITUTED PYRAZOLES AS HERBICIDES” (E I DU PONT DE NEMOURS AND COMPANY, priority 2013, published 2015)
# How the values were obtained:
# chickweed = assay: Test C postemergence; type: in vivo, Stellaria media
# In short: (§1)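 Herbicidal effect is expressed as percent visual control (0–100) judged against untreated plants 13 to 15 days after treatment in the greenhouse. Preemergence pots contained seeds in a soil–sand blend; postemergence plants, 2–18 cm tall, grew in peat-based planting medium.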
# pigweed = assay: Test C postemergence; type: in vivo, Amaranthus retroflexus
# In short: as §1
# foxtail, giant = assay: Test C postemergence; type: in vivo, Setaria faberii
# In short: as §1
# ryegrass, Italian = assay: Test C postemergence; type: in vivo, Lolium multiflorum
# In short: as §1
# corn = assay: Test C postemergence; type: in vivo, Zea mays
# In short: as §1
# morningglory = assay: Test C postemergence; type: in vivo, Ipomoea coccinea
# In short: as §1
# lambsquarters [1] = assay: Test C postemergence; type: in vivo, Chenopodium album
# In short: as §1
# blackgrass = assay: Test C postemergence; type: in vivo, Alopecurus myosuroides
# In short: as §1
# galium = assay: Test C postemergence; type: in vivo, Galium aparine
# In short: as §1
# soybean = assay: Test C postemergence; type: in vivo, Glycine max
# In short: as §1
# nutsedge, yellow = assay: Test C postemergence; type: in vivo, Cyperus esculentus
# In short: as §1
# wheat = assay: Test C postemergence; type: in vivo, Triticum aestivum
# In short: as §1
# johnsongrass = assay: Test C postemergence; type: in vivo, Sorghum halepense
# In short: as §1
# kochia = assay: Test C postemergence; type: in vivo, Kochia scoparia
# In short: as §1
# lambsquarters [2] = assay: Test C preemergence; type: in vivo, Chenopodium album; conditions: for Lambsquarters plant response rating: scale 0 to 100 (0 no effect, 100 complete control)
# In short: as §1
# velvetleaf = assay: Test C postemergence; type: in vivo, Abutilon theophrasti
# In short: as §1
# oilseed rape = assay: Test C postemergence; type: in vivo, Brassica napus
# In short: as §1
# waterhemp = assay: Test C postemergence; type: in vivo, Amaranthus rudis
# In short: as §1
# [3] = Postemergence, 31 g ai/ha, visually evaluated after 13 to 15 days
# [4] = postemergence, 62 g ai/ha, scale 0 to 100
# [5] = postemergence, 250 g ai/ha, scale 0 to 100 (0 no effect, 100 complete control)
# [6] = postemergence, 125 g ai/ha, scale 0 to 100, 0 no effect, 100 complete control
smiles,measurement,setting,value
CCOc1cc(C(=O)NC2CC2)nn1Cc1ccnc(OC(F)F)c1 [Compound 133],"Plant response rating (scale of 0 to 100 where 0 is no effect and 100 is complete control), Chickweed",chickweed; [3],50
same,Chickweed plant response rating,chickweed; [4],60
same,"Plant response rating, Chickweed",chickweed; [5],85
same,"Plant response rating, Chickweed",chickweed; [6],70
same,"Plant response rating (scale of 0 to 100 where 0 is no effect and 100 is complete control), Pigweed",pigweed; [3],50
same,Pigweed plant response rating,pigweed; [4],60
same,"Plant response rating, Pigweed",pigweed; [5],90
same,"Plant response rating, Pigweed",pigweed; [6],80
same,"Plant response rating (scale of 0 to 100 where 0 is no effect and 100 is complete control), Foxtail, Giant","foxtail, giant; [3]",35
same,"Foxtail, Giant plant response rating","foxtail, giant; [4]",40
same,"Plant response rating, Foxtail, Giant","foxtail, giant; [5]",80
same,"Plant response rating, Foxtail, Giant","foxtail, giant; [6]",50
same,"Plant response rating (scale of 0 to 100 where 0 is no effect and 100 is complete control), Ryegrass, Italian","ryegrass, Italian; [3]",5
same,"Ryegrass, Italian plant response rating","ryegrass, Italian; [4]",5
same,"Plant response rating, Ryegrass, Italian","ryegrass, Italian; [5]",10
same,"Plant response rating, Ryegrass, Italian","ryegrass, Italian; [6]",5
same,"Plant response rating (scale of 0 to 100 where 0 is no effect and 100 is complete control), Corn",corn; [3],10
same,Corn plant response rating,corn; [4],10
same,"Plant response rating, Corn",corn; [5],35
same,"Plant response rating, Corn",corn; [6],10
same,"Plant response rating (scale of 0 to 100 where 0 is no effect and 100 is complete control), Morningglory",morningglory; [3],75
same,Morningglory plant response rating,morningglory; [4],90
same,"Plant response rating, Morningglory",morningglory; [5],100
same,"Plant response rating, Morningglory",morningglory; [6],90
same,"Plant response rating (scale of 0 to 100 where 0 is no effect and 100 is complete control), Lambsquarters",lambsquarters [1]; [3],50
same,Lambsquarters plant response rating,lambsquarters [1]; [4],55
same,"Plant response rating, Lambsquarters",lambsquarters [1]; [5],90
same,"Plant response rating, Lambsquarters",lambsquarters [1]; [6],90
same,"Plant response rating (scale of 0 to 100 where 0 is no effect and 100 is complete control), Blackgrass",blackgrass; [3],5
same,Blackgrass plant response rating,blackgrass; [4],5
same,"Plant response rating, Blackgrass",blackgrass; [5],10
same,"Plant response rating, Blackgrass",blackgrass; [6],10
same,"Plant response rating (scale of 0 to 100 where 0 is no effect and 100 is complete control), Galium",galium; [3],70
same,Galium plant response rating,galium; [4],70
same,"Plant response rating, Galium",galium; [5],80
same,"Plant response rating, Galium",galium; [6],70
same,"Plant response rating (scale of 0 to 100 where 0 is no effect and 100 is complete control), Soybean",soybean; [3],85
same,Soybean plant response rating,soybean; [4],75
same,"Plant response rating, Soybean",soybean; [5],95
same,"Plant response rating, Soybean",soybean; [6],95
same,"Plant response rating (scale of 0 to 100 where 0 is no effect and 100 is complete control), Nutsedge, Yellow","nutsedge, yellow; [3]",5
same,"Nutsedge, Yellow plant response rating","nutsedge, yellow; [4]",5
same,"Plant response rating, Nutsedge, Yellow","nutsedge, yellow; [5]",15
same,"Plant response rating, Nutsedge, Yellow","nutsedge, yellow; [6]",5
same,"Plant response rating (scale of 0 to 100 where 0 is no effect and 100 is complete control), Wheat",wheat; [3],5
same,Wheat plant response rating,wheat; [4],5
same,"Plant response rating, Wheat",wheat; [5],30
same,"Plant response rating, Wheat",wheat; [6],15
same,"Plant response rating (scale of 0 to 100 where 0 is no effect and 100 is complete control), Johnsongrass",johnsongrass; [3],5
same,Johnsongrass plant response rating,johnsongrass; [4],5
same,"Plant response rating, Johnsongrass",johnsongrass; [5],5
same,"Plant response rating, Johnsongrass",johnsongrass; [6],5
same,"Plant response rating (scale of 0 to 100 where 0 is no effect and 100 is complete control), Kochia",kochia; [3],85
same,Kochia plant response rating,kochia; [4],90
same,"Plant response rating, Kochia",kochia; [5],90
same,"Plant response rating, Kochia",kochia; [6],90
same,"Plant response rating (scale of 0 to 100), Lambsquarters","lambsquarters [2]; Preemergence, 250 g ai/ha",100
same,Lambsquarters plant response rating,"lambsquarters [2]; preemergence, 31 g ai/ha, visual rating, 13 to 15 days",75
same,Lambsquarters plant response rating,"lambsquarters [2]; preemergence, 62 g ai/ha, 13 to 15 days",100
same,"Plant response rating, Lambsquarters","lambsquarters [2]; preemergence, 125 g ai/ha, 13 to 15 days, scale 0 to 100, 0 = no effect, 100 = complete control",100
same,"Plant response rating (scale of 0 to 100 where 0 is no effect and 100 is complete control), Velvetleaf",velvetleaf; [3],25
same,Velvetleaf plant response rating,velvetleaf; [4],45
same,"Plant response rating, Velvetleaf",velvetleaf; [5],70
same,"Plant response rating, Velvetleaf",velvetleaf; [6],35
same,"Plant response rating (scale of 0 to 100 where 0 is no effect and 100 is complete control), Oilseed Rape",oilseed rape; [3],50
same,Oilseed Rape plant response rating,oilseed rape; [4],60
same,"Plant response rating, Oilseed Rape",oilseed rape; [5],85
same,"Plant response rating, Oilseed Rape",oilseed rape; [6],75
same,"Plant response rating (scale of 0 to 100 where 0 is no effect and 100 is complete control), Waterhemp",waterhemp; [3],60
same,Waterhemp plant response rating,waterhemp; [4],60
same,"Plant response rating, Waterhemp",waterhemp; [5],95
same,"Plant response rating, Waterhemp",waterhemp; [6],75
